Experimental data taken from US20240287138A1, “CYCLIC PEPTIDES FOR INHIBITING TNF RECEPTOR 1 ACTIVITY” (Merck Sharp & Dohme LLC, priority 2023, published 2024).
Numbered stars: 1 amine (or outer) side, 2 acyl side, 3 side chain; on linkers, the order of the positions; unused ones are H or OH. Bridge positions count the residues as written; N and C are the ends. Square brackets hold non-standard residues; d marks the D form. Peptide text beside a SMILES is read from it. * marks the point of attachment. Trp(βS-Me,7-OMe) = COc1cccc2c([C@H](C)[C@H](N)C(=O)O)c[nH]c12; X5 = COc1cccc2[nH]cc([C@H](C)[C@H](N[*:1])C(=O)[*:2])c12; Trp(7-CN) = N#Cc1cccc2c(C[C@H](N)C(=O)O)c[nH]c12; Trp(7-Cl) = N[C@@H](Cc1c[nH]c2c(Cl)cccc12)C(=O)O; Phe(4-CONH2) = NC(=O)c1ccc(C[C@H](N)C(=O)O)cc1; Phe(4-COOH) = N[C@@H](Cc1ccc(C(=O)O)cc1)C(=O)O; Trp(7-F) = N[C@@H](Cc1c[nH]c2c(F)cccc12)C(=O)O; Trp(7-aza) = N[C@@H](Cc1c[nH]c2ncccc12)C(=O)O; Pip(5R-OH) = O=C(O)[C@@H]1CC[C@@H](O)CN1; X1 = O=C([C@@H]1CC[C@H](N[*:1])C1)[*:2]; Pip(4-aza) = O=C(O)[C@@H]1CNCCN1; hPhe = N[C@@H](CCc1ccccc1)C(=O)O; 4Pal = N[C@@H](Cc1ccncc1)C(=O)O; NMeE = CN[C@@H](CCC(=O)O)C(=O)O; dHyp = O=C(O)[C@H]1C[C@H](O)CN1; X7 = CC[C@@H](C(=O)[*:1])[*:2]; Ahp(2) = CCCCC[C@H](N)C(=O)O; NMeS = CN[C@@H](CO)C(=O)O; αMeS = C[C@](N)(CO)C(=O)O; Carboxymethyl = O=C(O)C*; NMeA = CN[C@@H](C)C(=O)O; Nle = CCCC[C@H](N)C(=O)O; Sar = CNCC(=O)O

Legend:
[1] = target: T1, human TNFR1 extracellular domain (ECD) protein (Homo sapiens, UniProt P19438); test: SPR binding affinity to captured human TNFR1 ECD
T1 construct: HRV 3C protease cleavage site (C); 6His (C, cleaved yes); made in house; host or cells: Sf21 insect cells (baculovirus), secreted
T1 sequence (P19438 30-211): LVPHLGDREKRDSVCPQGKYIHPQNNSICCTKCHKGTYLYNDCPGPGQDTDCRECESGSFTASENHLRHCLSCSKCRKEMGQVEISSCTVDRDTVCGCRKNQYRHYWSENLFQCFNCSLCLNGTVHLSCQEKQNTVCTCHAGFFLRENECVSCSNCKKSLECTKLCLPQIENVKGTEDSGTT
Procedure, shortened: (§1)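 Peptide binding kinetics read by SPR in HEPES pH 7.4 running buffer with 2% DMSO, with TNFR2 ECD tested in parallel for off-target binding. Receptor ECDs, insect-cell expressed and biotinylated at C-terminal avi-tag, were captured via streptavidin. KA derived from association and dissociation rate constants.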

[2] = target: T2, human TNFR2 ECD protein (Homo sapiens, UniProt P20333); test: SPR off-target binding (selectivity) to human TNFR2 ECD
T2 construct: HRV 3C protease cleavage site (C); 6His (C, cleaved yes); made in house; host or cells: Sf21 insect cells (baculovirus), secreted
T2 sequence (P20333 23-257): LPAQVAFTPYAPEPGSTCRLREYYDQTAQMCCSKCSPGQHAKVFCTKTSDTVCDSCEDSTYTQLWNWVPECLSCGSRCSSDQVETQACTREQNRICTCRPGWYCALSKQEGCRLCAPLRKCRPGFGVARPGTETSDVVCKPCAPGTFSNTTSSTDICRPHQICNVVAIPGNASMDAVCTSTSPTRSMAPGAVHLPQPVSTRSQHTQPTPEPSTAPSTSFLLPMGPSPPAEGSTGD
Procedure, shortened: as §1

[3] = target: T3, TNFα-induced NF-κB signal transduction pathway (TNFR1 signaling) in THP-1 cells (Homo sapiens, UniProt P19438); test: THP-1 Lucia NF-κB reporter cell assay, inhibition of TNFα-induced NF-κB signaling; format: cell-based; conditions: THP-1 NF-κB Lucia reporter cells, 10 ng/mL TNFα, 16-18 h, secreted luciferase; read-out: THP-1 IC50
T3 sequence (P19438 30-455): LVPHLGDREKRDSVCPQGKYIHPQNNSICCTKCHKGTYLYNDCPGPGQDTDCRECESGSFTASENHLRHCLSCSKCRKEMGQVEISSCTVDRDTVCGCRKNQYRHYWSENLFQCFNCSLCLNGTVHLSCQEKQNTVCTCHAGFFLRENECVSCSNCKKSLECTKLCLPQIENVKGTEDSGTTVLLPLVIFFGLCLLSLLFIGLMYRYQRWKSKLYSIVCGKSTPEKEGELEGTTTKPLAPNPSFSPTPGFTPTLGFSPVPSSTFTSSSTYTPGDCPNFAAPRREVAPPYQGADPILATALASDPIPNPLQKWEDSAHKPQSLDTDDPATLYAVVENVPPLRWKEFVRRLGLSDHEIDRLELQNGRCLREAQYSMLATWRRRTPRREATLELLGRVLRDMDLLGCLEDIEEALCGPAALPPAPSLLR
Procedure, shortened: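 IC50 from a 4-parameter logistic fit of secreted luciferase luminescence (QUANTI-Luc), normalised to min/max controls. Reporter THP-1 cells were exposed to peptides for 1 h at 37 °C before 10 ng/mL TNFα (final) was added overnight (16–18 h).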

Row | Structure (SMILES) | Kd [1] [nM] | Kd [2] [nM] | IC50 [3] [nM]
1 | CCCCC[C@@H]1NC(=O)[C@@H]2CC[C@@H](C2)NC(=O)[C@H]([C@@H](C)c2c[nH]c3c(OC)cccc23)NC(=O)CN(C)C(=O)[C@H](Cc2ccc(C(N)=O)cc2)NC(=O)[C@H](Cc2ccc(C(N)=O)cc2)NC(=O)[C@](C)(CO)NC(=O)[C@H](Cc2c[nH]c3c(C#N)cccc23)NC(=O)[C@H](Cc2ccc(C(=O)O)cc2)NC(=O)[C@H](CC(N)=O)NC(=O)[C@H]2C[C@H](OCC(=O)O)CN2C(=O)[C@H](Cc2c[nH]c3ccccc23)NC(=O)[C@@H]2CNCCN2C(=O)[C@H](Cc2ccncc2)NC1=O [SEQ ID NO. 140] (cyclo([4Pal][Pip(4-aza)]W[dHyp](Carboxymethyl)N[Phe(4-COOH)][Trp(7-CN)][αMeS][Phe(4-CONH2)][Phe(4-CONH2)][Sar][Trp(βS-Me,7-OMe)][X1][Ahp(2)])) | 0.05 | > 1000 | 0.5
2 | CCCC[C@@H]1NC(=O)[C@H](CC)SC[C@@H](C(N)=O)NC(=O)[C@H]([C@@H](C)c2c[nH]c3c(OC)cccc23)NC(=O)CN(C)C(=O)[C@H](Cc2ccc(O)cc2)NC(=O)[C@H](Cc2ccc(C(N)=O)cc2)NC(=O)[C@](C)(CO)NC(=O)[C@H](Cc2c[nH]c3c(Cl)cccc23)NC(=O)[C@H](Cc2ccc(C(=O)O)cc2)NC(=O)[C@H](CC(N)=O)NC(=O)[C@H](CCC(=O)O)N(C)C(=O)[C@H](Cc2c[nH]c3ncccc23)NC(=O)[C@@H]2CC[C@@H](O)CN2C(=O)[C@H](Cc2ccncc2)NC1=O [SEQ ID NO. 168] ([Nle][4Pal][Pip(5R-OH)][Trp(7-aza)][NMeE]N[Phe(4-COOH)][Trp(7-Cl)][αMeS][Phe(4-CONH2)]Y[Sar][Trp(βS-Me,7-OMe)]C-NH2; linker N-14 via X7) | 0.37 | > 1000 | 1.2
3 | C[C@H]1C(=O)N[C@@H](CC(N)=O)C(=O)N[C@@H](Cc2ccncc2)C(=O)N[C@@H](Cc2c[nH]c3ccccc23)C(=O)N[C@@](C)(CO)C(=O)N[C@@H](Cc2ccc(C(=O)O)cc2)C(=O)N[C@@H](Cc2ccc(O)cc2)C(=O)N(C)CC(=O)N[C@@H](Cc2c[nH]c3ccccc23)C(=O)N[C@H](C(N)=O)CSCC(=O)N[C@@H](CCc2ccccc2)C(=O)N[C@@H](Cc2ccc(O)cc2)C(=O)N[C@@H](CO)C(=O)N[C@@H](Cc2c[nH]c3c(F)cccc23)C(=O)N1C [SEQ ID NO. 263] ({CH2CO}-[hPhe]YS[Trp(7-F)][NMeA]N[4Pal]W[αMeS][Phe(4-COOH)]Y[Sar]WC-NH2; thioether N-14) | 1.6 | > 1000 | 4.7
4 | CCCC[C@@H]1NC(=O)[C@@H]2CC[C@@H](C2)NC(=O)[C@H]([C@@H](C)c2c[nH]c3c(OC)cccc23)NC(=O)CN(C)C(=O)[C@H](Cc2ccc(OC)cc2)NC(=O)[C@H](Cc2ccc(C(=O)O)cc2)NC(=O)[C@](C)(CO)NC(=O)[C@H](Cc2c[nH]c3c(Cl)cccc23)NC(=O)[C@H](Cc2ccc(C(N)=O)cc2)NC(=O)[C@H](CCC(N)=O)NC(=O)[C@H](CCC(=O)O)N(C)C(=O)[C@H](Cc2c[nH]c3ccccc23)NC(=O)[C@@H]2CNCCN2C(=O)[C@H](Cc2ccncc2)NC1=O [SEQ ID NO. 240] (cyclo([4Pal][Pip(4-aza)]W[NMeE]Q[Phe(4-CONH2)][Trp(7-Cl)][αMeS][Phe(4-COOH)]Y(Me)[Sar][Trp(βS-Me,7-OMe)][X1][Nle])) | 0.09 | > 1000 | 1
5 | CCCC[C@@H]1NC(=O)CSC[C@@H](C(N)=O)NC(=O)[C@H]([C@@H](C)c2c[nH]c3cccc(OC)c23)NC(=O)CN(C)C(=O)[C@H](Cc2ccc(O)cc2)NC(=O)[C@H](Cc2ccc(C(N)=O)cc2)NC(=O)[C@](C)(CO)NC(=O)[C@H](Cc2c[nH]c3c(Cl)cccc23)NC(=O)[C@H](Cc2ccc(C(=O)O)cc2)NC(=O)[C@H](CC(N)=O)NC(=O)[C@H](CCC(=O)O)N(C)C(=O)[C@H](Cc2c[nH]c3ncccc23)NC(=O)[C@H](CO)N(C)C(=O)[C@H](Cc2ccncc2)NC1=O [SEQ ID NO. 209] ({CH2CO}-[Nle][4Pal][NMeS][Trp(7-aza)][NMeE]N[Phe(4-COOH)][Trp(7-Cl)][αMeS][Phe(4-CONH2)]Y[Sar][X5]C-NH2; thioether N-14) | 0.4 | > 1000 | 2.7
